Experimental data from the supplement of paper PMC13380429.

What was measured:
Settings in all cases: 72 h
Caco-2 [1] = test: cell viability relative to DMSO; higher = less toxic
Calu-3 [2] = test: as above
HepG2 [3] = test: as above
U2OS [4] = test: as above
Vero E6 [5] = test: as above
Caco-2 [6] = test: relative viability EC50 (midpoint between 100% and the lowest measured viability); higher = less toxic
Calu-3 [7] = test: as above
U2OS [8] = test: as above
Caco-2 [9] = test: drug sensitivity score (DSS) for viability; higher = more toxic; extreme values may be limits of the assay
Calu-3 [10] = test: as above
HepG2 [11] = test: as above
U2OS [12] = test: as above
Vero E6 [13] = test: as above
HepG2 [14] = test: relative viability EC50 (midpoint between 100% and the lowest measured viability); higher = less toxic

SMILES	cell viability (Caco-2 [1]; 1 nM)	cell viability (Caco-2 [1]; 10 nM)	cell viability (Caco-2 [1]; 100 nM)	cell viability (Caco-2 [1]; 1000 nM)	cell viability (Caco-2 [1]; 10000 nM)	cell viability (Calu-3 [2]; 1 nM)	cell viability (Calu-3 [2]; 10 nM)	cell viability (Calu-3 [2]; 100 nM)	cell viability (Calu-3 [2]; 1000 nM)	cell viability (Calu-3 [2]; 10000 nM)	cell viability (HepG2 [3]; 1 nM)	cell viability (HepG2 [3]; 10 nM)	cell viability (HepG2 [3]; 100 nM)	cell viability (HepG2 [3]; 1000 nM)	cell viability (HepG2 [3]; 10000 nM)	cell viability (U2OS [4]; 1 nM)	cell viability (U2OS [4]; 10 nM)	cell viability (U2OS [4]; 100 nM)	cell viability (U2OS [4]; 1000 nM)	cell viability (U2OS [4]; 10000 nM)	cell viability (Vero E6 [5]; 1 nM)	cell viability (Vero E6 [5]; 10 nM)	cell viability (Vero E6 [5]; 100 nM)	cell viability (Vero E6 [5]; 1000 nM)	cell viability (Vero E6 [5]; 10000 nM)	relative viability EC50 (Caco-2 [6])	relative viability EC50 (Calu-3 [7])	relative viability EC50 (U2OS [8])	drug sensitivity score (Caco-2 [9])	drug sensitivity score (Calu-3 [10])	drug sensitivity score (HepG2 [11])	drug sensitivity score (U2OS [12])	drug sensitivity score (Vero E6 [13])	relative viability EC50 (HepG2 [14])
COc1ccc(CCc2nc3cc(-c4c(C)noc4C)ccc3n2C[C@H](C)N2CCOCC2)cc1Cl [SGC-CBP30]	93.5%	97.2%	106%	87.9%	76.8%	99.4%	102%	88.3%	90.9%	86.4%	90.4%	105%	93.6%	94.9%	70.4%	94.7%	95.5%	102%	98.7%	79.3%	89.8%	97.6%	89.5%	94.5%	53.9%	> 10 µM	> 10 µM	> 10 µM	2.2	1.7	2.1	0.8	3.3	–
Cc1cc(Nc2cc(CN3CCOCC3)c3nc(C)c(Cc4ccc(Cl)cc4F)n3n2)n[nH]1	102%	98.2%	105%	96.7%	62.8%	107%	99.7%	97.1%	91%	50.6%	101%	105%	97.5%	75.5%	32.7%	104%	105%	104%	99.4%	29.6%	96.4%	98%	96.8%	95.8%	70.7%	–	–	3.11 µM	2.3	4.1	6.9	4	1.9	1.29 µM
CC(=O)Nc1ccc(C(=O)Nc2ccccc2N)cc1 [tacedinaline]	97.3%	95.2%	93.4%	99.9%	52.7%	101%	99.8%	97.1%	74.5%	42.3%	104%	85.5%	98%	74.4%	40.8%	99%	103%	95.1%	90.7%	43.1%	99%	104%	97.9%	92.8%	54.7%	–	1.14 µM	1.91 µM	2.5	6.1	6.3	4.6	3.5	1.15 µM
CS(=O)(=O)Nc1ccc([N+](=O)[O-])cc1Oc1ccccc1 [nimesulide]	–	–	–	–	–	–	–	–	–	–	–	–	–	–	–	–	–	–	–	–	–	–	–	–	–	–	–	–	–	0	0	0	0	–
O=C(NO)c1ccc(O)c(O)c1 [didox]	101%	96.9%	100%	86.7%	104%	111%	110%	96.6%	103%	107%	102%	102%	93.3%	118%	93.2%	–	–	–	–	–	–	–	–	–	–	> 10 µM	> 10 µM	–	0	0	0	–	–	> 10 µM
CCc1cc(C(C)=O)c(O)cc1OCCCCCC(C)(C)c1nn[nH]n1	102%	92.1%	99.5%	107%	94.5%	108%	103%	97.1%	98%	93.3%	99.8%	107%	105%	88.4%	107%	94%	96.2%	88.1%	97.4%	95.5%	–	–	–	–	–	> 10 µM	> 10 µM	> 10 µM	0	0	0	0	–	> 10 µM
NC(=O)Nc1cc(-c2cccc(F)c2)sc1C(=O)N[C@H]1CCCNC1 [AZD7762]	96.3%	91.5%	102%	82.6%	25%	106%	96.4%	94.8%	43.4%	7%	97.8%	101%	103%	37.8%	1.3%	101%	95.9%	97.3%	6.1%	0.1%	92%	99.1%	90.7%	84.6%	52.4%	1.61 µM	0.736 µM	0.352 µM	6.9	12	12.7	17.4	4.1	0.809 µM
Cc1cc([C@@H](C)Nc2ccccc2C(=O)O)c2nc(N3CCOCC3)cc(=O)n2c1 [AZD6482]	93.5%	102%	90%	83.6%	57.5%	97.7%	105%	94.2%	100%	69%	103%	102%	99.9%	85.5%	79.7%	100%	101%	96.1%	99.8%	80.8%	108%	96.5%	89.3%	79.8%	67.6%	–	–	> 10 µM	3.9	1.3	2	0.6	4.1	> 10 µM
CC(=O)C1=C(O)[C@@H]2[C@H]3c4c[nH]c5cccc(c45)C[C@H]3C(C)(C)N2C1=O [cyclopiazonic-acid]	99.9%	106%	107%	106%	81.9%	105%	98.1%	102%	95.7%	98.8%	110%	105%	103%	97.2%	64.3%	102%	100%	100%	96.2%	86.1%	100%	96.5%	94.3%	95.3%	65.6%	> 10 µM	> 10 µM	> 10 µM	0.3	0	2.1	0.4	2.4	–
NCc1ccc(S(N)(=O)=O)cc1 [mafenide]	106%	98.5%	97.7%	103%	98.1%	100%	103%	98.1%	94.5%	96.1%	94.1%	102%	99.9%	101%	95.7%	–	–	–	–	–	–	–	–	–	–	> 10 µM	> 10 µM	–	0	0	0	–	–	> 10 µM
NS(=O)(=O)c1ccc(C(=O)O)cc1 [carzenide]	106%	96.1%	112%	106%	96.9%	106%	101%	93.4%	100%	94.2%	97.6%	99.8%	102%	102%	94.9%	–	–	–	–	–	–	–	–	–	–	> 10 µM	> 10 µM	–	0	0	0	–	–	> 10 µM
Cc1c(N)nc([C@H](CC(N)=O)NC[C@H](N)C(N)=O)nc1C(=O)N[C@H](C(=O)N[C@H](C)[C@@H](O)[C@H](C)C(=O)N[C@H](C(=O)NCCc1nc(-c2nc(C(=O)NCCC[S+](C)C)cs2)cs1)[C@@H](C)O)[C@@H](OC1OC(CO)C(O)C(O)C1OC1OC(CO)C(O)C(OC(N)=O)C1O)c1cnc[nH]1 (stereo partly drawn) [bleomycin]	98.9%	93.8%	92.3%	89.5%	76.8%	102%	91.8%	94.7%	66.2%	49.8%	93.4%	93.7%	95.8%	66.2%	50.8%	97%	101%	93.5%	88.4%	55.6%	97.4%	103%	97.5%	75.5%	60%	> 10 µM	0.536 µM	–	1.7	6.9	6.8	3.8	4.8	–
CCOC(=O)C1=C(C)NC(c2ccccc2)=C(C(=O)OCc2ccc([N+](=O)[O-])cc2)[C@@H]1C#Cc1ccccc1 [MRS-1334]	99.1%	99.7%	92.8%	96.8%	91.9%	99.2%	97.1%	96.8%	95.2%	98%	114%	104%	100%	92.6%	89.3%	104%	95.8%	100%	101%	97.9%	–	–	–	–	–	> 10 µM	> 10 µM	> 10 µM	0	0	0.1	0	–	> 10 µM
Clc1ccc(-c2nc3sccn3c2/C=N/OCc2ccc(Cl)c(Cl)c2)cc1 [CITCO]	107%	98.5%	110%	94%	96.5%	92.2%	88.4%	93.1%	93.6%	92.1%	97%	104%	104%	104%	97.9%	96.3%	98.7%	99.5%	97.6%	94%	–	–	–	–	–	> 10 µM	> 10 µM	> 10 µM	0	0	0	0	–	> 10 µM
COc1ccc(Nc2ccn(-c3ccccc3)n2)cc1	102%	98.5%	90%	97.4%	89.4%	–	–	–	–	–	102%	97.2%	97.6%	114%	100%	95%	100%	94.2%	99.5%	96.2%	–	–	–	–	–	> 10 µM	–	> 10 µM	0	–	0	0	–	> 10 µM
Cc1cc2c(cc1CC(=O)c1sccc1S(=O)(=O)Nc1onc(C)c1Cl)OCO2 [sitaxentan]	114%	98%	102%	100%	108%	–	–	–	–	–	–	–	–	–	–	99.6%	99.6%	98.9%	101%	101%	–	–	–	–	–	> 10 µM	–	> 10 µM	0	–	–	0	–	–
CCOP(=S)(OCC)Oc1ccc2c(C)c(Cl)c(=O)oc2c1 [coumophos]	–	–	–	–	–	–	–	–	–	–	–	–	–	–	–	–	–	–	–	–	–	–	–	–	–	–	–	–	–	0	0	0	0	–
CC(=O)OC[C@H]1O[C@@H](n2ccc(=O)[nH]c2=O)[C@H](OC(C)=O)[C@@H]1OC(C)=O [uridine-triacetate]	101%	110%	114%	97.2%	115%	–	–	–	–	–	106%	113%	106%	109%	95.4%	–	–	–	–	–	–	–	–	–	–	> 10 µM	–	–	0	–	0	–	–	> 10 µM
